Measured values reported in publication PMC3982398 (Biochemical pharmacology, 2009).
Like-named read-outs stand apart in the source and are kept apart here.

Experiments:
[1] = system: human placental microsomes
human hepatic microsomes [2] = system: human hepatic microsomes
[3] = compared with glyburide; ref [12], [13]; cited from earlier work
[4] = system: human placental microsomes; conditions: sulfaphenazole 10 μM, lansoprazole 10 μM, troleandomycin 50 and 200 μM, quinidine 5 μM, 4-methylpyrazole 25 μM
[5] = cited from earlier work
human hepatic microsomes [6] = type: in vitro ADME; conditions: ketoconazole 0.5 μM, troleandomycin 50 μM, sulfaphenazole 40 μM; for decrease in formation of M2a: lansoprazole 10 μM; for decrease in the aggregate (total) amount of metabolites formed: α-naphthoflavone 0.05 μM
CYP19 = conditions: ref [27]; cited from earlier work

SMILES: COc1ccc(Cl)cc1C(=O)NCCc1ccc(S(=O)(=O)NC(=O)N[C@H]2CCC[C@@H](O)C2)cc1 (relative stereo) [M2b, 3-cis-hydroxycyclohexyl glyburide]
- amount of metabolite formed as percent of the total metabolites [1]: 1%
- amount of metabolite formed as percent of the total metabolites (human hepatic microsomes [2]): 12%
- potency in lowering the concentration of glucose [3]: as potent as glyburide

SMILES: COc1ccc(Cl)cc1C(=O)NCCc1ccc(S(=O)(=O)NC(=O)N[C@@H]2CCCC[C@H]2O)cc1 (relative stereo) [M4, 2-trans-hydroxycyclohexyl glyburide]
- amount of metabolite formed as percent of the total metabolites [1]: 1%
- amount of metabolite formed as percent of the total metabolites (human hepatic microsomes [2]): 4%

SMILES: C[C@]12CCC(=O)C(O)=C1CC[C@@H]1[C@@H]2CC[C@]2(C)C(=O)CC[C@@H]12 [4-hydroxyandrostenedione]
- decrease in M5 formation ([4]; 4-hydroxyandrostenedione 10 μM, α-naphthoflavone 0.05 μM): 87%

SMILES: COc1ccc(Cl)cc1C(=O)NCCc1ccc(S(=O)(=O)NC(=O)N[C@H]2CC[C@H](O)CC2)cc1 [M1, 4-trans-hydroxycyclohexyl glyburide]
- amount of metabolite formed as percent of the total metabolites [1]: 4%
- potency in lowering the concentration of glucose [3]: as potent as glyburide

SMILES: COc1ccc(Cl)cc1C(=O)NCCc1ccc(S(=O)(=O)NC(=O)N[C@H]2CC[C@@H](O)CC2)cc1 [M2a, 4-cis-hydroxycyclohexyl glyburide]
- amount of metabolite formed as percent of the total metabolites [1]: negligible
- amount of metabolite formed as percent of the total metabolites (human hepatic microsomes [2]): 11%

SMILES: COc1ccc(Cl)cc1C(=O)NCCc1ccc(S(=O)(=O)NC(=O)NC2CCCC(O)C2)cc1 (stereo not drawn) [M3, 3-trans-hydroxycyclohexyl glyburide]
- amount of metabolite formed as percent of the total metabolites [1]: 1%
- amount of metabolite formed as percent of the total metabolites (human hepatic microsomes [2]): 6%

SMILES: COc1ccccc1Oc1c(NS(=O)(=O)c2ccc(C(C)(C)C)cc2)nc(-c2ncccn2)nc1OCCO [bosentan]
- effect of administration on plasma levels of glyburide ([5]; ref [18]): lowered plasma levels of glyburide

SMILES: CC(=O)N1CCN(c2ccc(OCC3COC(Cn4ccnc4)(c4ccc(Cl)cc4Cl)O3)cc2)CC1 (stereo not drawn) [ketoconazole]
- decrease in formation of M1 (human hepatic microsomes [6]): ≤ 20%
- decrease in formation of M2b (human hepatic microsomes [6]): ≤ 20%
- decrease in formation of M3 (human hepatic microsomes [6]): ≥ 50%
- decrease in formation of M4 (human hepatic microsomes [6]): ≥ 50%
- decrease in formation of M5 (human hepatic microsomes [6]): 93%
- decrease in formation of M2a (human hepatic microsomes [6]): approximately 40%
- decrease in the aggregate (total) amount of metabolites formed (human hepatic microsomes [6]): 53%

SMILES: Cc1c(OCC(F)(F)F)ccnc1C[S+]([O-])c1nc2ccccc2[nH]1 (stereo not drawn) [lansoprazole]
- decrease in formation of M2a (human hepatic microsomes [6]): ≈ 20%
- effect on the aggregate amount of metabolites [4]: negligible

SMILES: C=C[C@H]1C[N@@]2CC[C@H]1C[C@@H]2[C@@H](O)c1ccnc2ccc(OC)cc12 [quinidine]
- effect on the aggregate amount of metabolites [4]: negligible

SMILES: CO[C@H]1/C=C/O[C@@]2(C)Oc3c(C)c(O)c4c(O)c(c(/C=N/N5CCN(C)CC5)c(O)c4c3C2=O)NC(=O)/C(C)=C\C=C\[C@H](C)[C@H](O)[C@@H](C)[C@@H](O)[C@@H](C)[C@H](OC(C)=O)[C@@H]1C [rifampin]
- effect of administration on plasma levels of glyburide ([5]; ref [30]): lowered plasma levels of glyburide

SMILES: Nc1ccc(S(=O)(=O)Nc2ccnn2-c2ccccc2)cc1 [sulfaphenazole]
- decrease in formation of M1 (human hepatic microsomes [6]): approximately 40%
- decrease in formation of M2b (human hepatic microsomes [6]): approximately 40%
- decrease in formation of M3 (human hepatic microsomes [6]): ≤ 20%
- decrease in formation of M4 (human hepatic microsomes [6]): ≤ 20%
- decrease in formation of M5 (human hepatic microsomes [6]): ≤ 20%
- decrease in formation of M2a (human hepatic microsomes [6]): approximately 40%
- decrease in the aggregate (total) amount of metabolites formed (human hepatic microsomes [6]): 28%
- effect on the aggregate amount of metabolites [4]: negligible

SMILES: O=c1cc(-c2ccccc2)oc2c1ccc1ccccc12 [α-naphthoflavone]
- inhibition of CYP19 (CYP19): inhibitor of CYP19
